Data from PMC3367201 (Nucleic Acids Research, 2012).
pKi: −log10 of the molar value.

Molecular target: Hp ND-AspRS (non-discriminating aspartyl-tRNA synthetase) (Helicobacter pylori, UniProt P56459)
Experiment: inhibition of tRNA aminoacylation with […] L-Asp
Assay type: biochemical

Chain of Hp ND-AspRS (non-discriminating aspartyl-tRNA synthetase) (P56459 whole entry): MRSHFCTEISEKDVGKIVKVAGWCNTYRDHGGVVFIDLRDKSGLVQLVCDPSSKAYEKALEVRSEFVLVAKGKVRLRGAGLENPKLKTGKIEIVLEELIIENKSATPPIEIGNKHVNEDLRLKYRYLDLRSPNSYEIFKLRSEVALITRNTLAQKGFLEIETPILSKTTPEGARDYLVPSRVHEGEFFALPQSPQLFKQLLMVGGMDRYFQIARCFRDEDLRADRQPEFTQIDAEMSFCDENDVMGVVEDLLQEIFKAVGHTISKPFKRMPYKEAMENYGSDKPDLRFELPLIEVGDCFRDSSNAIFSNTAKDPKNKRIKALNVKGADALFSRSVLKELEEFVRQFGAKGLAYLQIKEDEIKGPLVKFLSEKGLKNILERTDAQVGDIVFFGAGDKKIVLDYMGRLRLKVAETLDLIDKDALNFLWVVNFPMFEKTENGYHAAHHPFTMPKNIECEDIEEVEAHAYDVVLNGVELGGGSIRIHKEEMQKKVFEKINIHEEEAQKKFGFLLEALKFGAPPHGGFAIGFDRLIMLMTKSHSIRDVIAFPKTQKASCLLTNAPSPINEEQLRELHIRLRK

pKi: 5.10
Compound: Nc1ncnc2c1ncn2[C@@H]1O[C@H](COP(=O)(O)OC[C@@H](N)CC(=O)O)[C@@H](O)[C@H]1O [Asp-ol-AMP]
